Measurements from US20240228434A1, “PRODRUGS OF KV7 CHANNEL OPENERS” (Xyzagen, Inc., priority 2021, published 2024).

Experiments:
[1] = Solvent solubility assessment by visual inspection; assay type: physicochemical; details: 0.1N Na2HPO4
Method: Compounds were weighed and placed into a 4 dram vials and solvents were added to the target concentration. Compounds were vortex and visually inspected for particulates and considered soluble if clear upon visual inspection with and without magnification. Solubility was reported as either greater than (>) or less than (<) from the prepared concentration. […] It was evaluated at 10 mg/mL in 0.1 N NaCl and was freely soluble. It was evaluate at 1 mg/mL in 0.1 N NaOH and 0.1 N Na2HPO4 and was freely soluble. In ethanol and methanol it was freely soluble at a concentration of 75 mg/mL. […] It was freely soluble at 75 mg/mL in methanol and ethanol. It was soluble at 1 mg/mL in 1N HCl.

[2] = Stability in solvents on the benchtop exposed to light, HPLC-UV 230 nm; assay type: physicochemical
Method: Compounds in solvent were left on the benchtop exposed to light for up to 7 days since it is known that Compound 1 will degrade with light within 3-7 days.
Stability was assessed by taking an aliquot from the solubility vials at each test day. A single replicate was injected for each test condition.
Samples were injected onto an HPLC system with an aqueous mobile phase and acetonitrile organic phase and compounds were separated on a C8 50×2 mm column. Wavelength 230 nm was monitored for absorption and integrated for peak area while the mass spectrometer was used to confirm mass. Samples were tested on Day 1 and on subsequent days through Day 7.

[3] = In vitro mouse plasma stability at 37° C.; assay type: in vitro ADME; details: 1000 ng/mL
Method: (§1) Plasma was collected by the biomaterial vendor and kept frozen at −20° C.
(§2) The samples were analyzed by HPLC separation and mass spectrometry detection for prodrug amount, relative to a baseline time 0 control sample. Triplicate samples were generated at each time point and the peak area response was averaged and converted to a percent of baseline control.

[4] = In vitro rat plasma stability at 37° C.; assay type: in vitro ADME
Method: as §1, §2

[5] = Pharmacokinetics of ezogabine prodrugs in rat (IV, IM, PO); details: for Exposure of the prodrug itself in systemic circulation: rat, in vivo, po
Method: (§3) Blood was diluted by 10% with these stabilizers.
(§4) Extraction of the molecules was conducted by taking a 50 uL aliquot of plasma and adding 200 uL of acetonitrile containing 200 ng/mL tolbutamide as the internal standard. Samples were precipitated in a 96 well plate, centrifuges and an aliquot transferred to a new plate, dried down under heat and nitrogen and then reconstituted in the initial mobile phase conditions of the LC-MS/MS method. […] A standard curve was prepared from 5000 ng/mL to 1 ng/mL for each analyte. Concentration data from the bioanalytical run was analyzed by Phoenix Winnonlin version 8 for noncompartmental PK analysis, plotting of concentration time curves and tabulation of PK parameters.
150 uL of blood were collected at predesignated time points. At completion of the study animals were asphyxiated by carbon dioxide gas and exsanguinated for euthanasia.

MES induced seizures = test: SD rat MES test after IM Compound 4; assay type: in vivo; details: IM 75 mg/kg
Method: All treatments were at 0.083, 0.25, 0.5, 1, 2, 4, and 8 hours prior to the administration of MES test, where 6 seconds where 6 seconds without a seizure was considered protected.

[6] = Rat PK at equimolar dose to Ezogabine (20 mg/kg) in 0.5% methylcellulose; details: for AUClast/D / Cmax/D: male jugular vein cannulated rats, dose equimolar to Ezogabine 20 mg/kg, 0.5% methylcellulose in water, analyte the dosed prodrug; for AUClast/D: 24 hours; for Exposure of ezogabine (dose normalized AUC) compared with ezogabine itself: rats, equimolar dose to Ezogabine 20 mg/kg
Method: (§5) Blood samples were collected at the same time points over 24 hours to generate a concentration time profile. Two male rats were dosed per group. Plasma samples were analyzed by LC/MS/MS and the resulting concentration time profiles and PK parameters are provided.
as §5, §5

[7] = test system: flicks/licks after intraplantar 5% formalin; test: Formalin inflammatory pain model; assay type: in vivo, CD-1 mouse; details: SC 100 mg/kg in water 30 minutes before formalin; both phases (0-10 min, 15-40 min)
Method: Compound 4 was assessed in the rat formalin inflammatory model. The number of flicks/licks of a male CD-1 mouse in the acute phase 0-10 minute and the inflammatory phase from 15-40 min after intraplantar administration of 50 μL of 5% formalin was recorded. […] Data is presented over the duration of the observation periods in 2 minute bins.

[8] = Acid and organic solution stability, HPLC-UV 250 nm; details: for Degradation / conversion to ezogabine in solution (summary) / Ezogabine Area / Appearance of the stability solution: 5 mg/mL; for Degradation / conversion to ezogabine in solution (summary): up to 3 weeks
Method: An HPLC-UV Vis method was developed using 0.1% Formic acid in water as mobile phase A and 0.1% Formic acid in acetonitrile as mobile Phase B. A gradient method was developed ramping from 10% A to 90% B over 8 minutes and then returning to 10% A at 8.5 minutes on a 4.6×50 mm Zorbax C-18 column. Injections of 10 uL of stability solutions were injected for analyte detection.
[…] Aliquots were collected at serial time points and then diluted to a nominal concentration of 100 ug/mL for injection to the HPLC and 250 nm monitored by the diode array detector. Data at approximately 10 days is presented.
Aliquots were collected at serial time points and then diluted to a nominal concentration of 100 ug/mL for injection to the HPLC and 250 nm monitored by the diode array detector.
(§6) It was also evaluated at 2 N HCl at 37° C. Aliquots were collected at serial time points and then diluted to a nominal concentration of 100 ug/mL for injection to the HPLC and 250 nm monitored by the diode array detector.
as §6, §6, §6

[9] = Pharmacokinetics of ezogabine prodrugs in mouse (SC, PO); details: male mice, PO 20 mg/kg Cmpd 1 dosed
Method: as §3
as §4, with “noncompartmental sparse sampling” for “noncompartmental”
Animals were asphyxiated by carbon dioxide gas, blood was collected by cardiac stick and they were euthanized by cervical dislocation.

[10] = patients receiving ezogabine (POTIGA); cited from earlier work
[11] = test system: mechanical hypersensitivity in the CCI model; test: CCI model of neuropathic pain (pin prick, von Frey hairs); assay type: in vivo, Sprague Dawley rat; details: 1 h after pretreatment
Method: Compound 3 was tested for reversal of mechanical hypersensitivity to the pin prick test for hindlimb paw withdraw and the von Frey hairs for gram force mechanical allodynia in the CCI model of neuropathic pain. Male Sprague Dawley rats (n=8/group) were tested for baseline sensitivity on Day 1 (ipsilateral and contralateral paws) and administered XYG-203 orally; 40 mg/kg on Day 1, 20 mg/kg Day 3, 10 mg/kg Day 5, 5 mg/kg Day 7, 1 mg/kg Day 10 and baseline on Day 12. Mechanical hypersensitivity was tested 1 h after pretreatment. Data (mean±SD) were analyzed with a repeated measures ANOVA with Dunnet's adjustment for multiple comparisons.

[12] = Methanol, room temp., normal light, 437 h

CCOC(=O)Nc1ccc(NCc2ccc(F)cc2)cc1NC(=O)[C@@H](N)CCCCN [Compound 4]
Solubility [1]: >1000 µg/mL | Stability in solvent ([2]; all test conditions except 0.1N NaOH, over 4 days): stable | Plasma stability [3]: degrades by 6 hours | Percent remaining ([4]; at 23 h): below 50% | Exposure of the prodrug itself in systemic circulation [5]: slightly more detectable | Protection from MES induced seizures (MES induced seizures; at 1 h post dose): almost fully protected | Protection from MES induced seizures (MES induced seizures; from 2 through 8 hours post dose): fully protected | AUClast/D [6]: 6.26 ng·h/mL/mg/kg | Cmax/D [6]: 2.34 ng/mL/mg/kg | Exposure of ezogabine (dose normalized AUC) compared with ezogabine itself [6]: similar | Reduction in behavioral response (flicks/licks) compared to vehicle [7]: 50% | Degradation / conversion to ezogabine in solution (summary) [8]: very little degradation to ezogabine | Ezogabine Area ([8]; 0.1N HCl, room temp., normal light, 269 h): 0 mAU | Ezogabine Area ([8]; 1N HCl, room temp., normal light, 269 h): 0 mAU | Ezogabine Area ([8]; 2N HCl 37 C., 436 h): 167 mAU | Ezogabine Area ([8]; 2N HCl, room temp., normal light, 269 h): 38 mAU | Appearance of the stability solution ([8]; 18 days): remained clear and colorless through Day 18 | Ezogabine Area [8, 12]: 0 mAU | Ezogabine Area ([8]; PBS, room temp., normal light, 435 h): 0 mAU

CCOC(=O)Nc1ccc(NCc2ccc(F)cc2)cc1N [Compound 1, ezogabine]
Cmax/D ([9]; analyte Cmpd 1): 148 ng/mL/mg/kg | AUClast/D ([9]; analyte Cmpd 1, AUClast 6 h): 190 ng·h/mL/mg/kg | AUClast/D ([5]; male Sprague Dawley rats, PO 20 mg/kg Cmpd 1 dosed, analyte Cmpd 1, AUClast […] h): 280 ng·h/mL/mg/kg | Appearance of the stability solution ([8]; acid solutions, room temperature): turning light purple (indicating degradation) by Day 2 | Solubility ([8]; low pH): soluble | Behaviour at low pH ([8]; low pH (1 N HCl) and simulated gastric fluid): degrades and forms a chromophore dimer | Solubility ([8]; neutral pH): not soluble | Appearance of the stability solution ([8]; organic solvent solutions, room temperature): did not begin turning purple until Day 7 | Adverse reaction: abnormal coordination [10]: 7% | Adverse reaction: aphasia [10]: 4% | Adverse reaction: asthenia [10]: 5% | Adverse reaction: balance disorder [10]: 4% | Adverse reaction: blurred vision [10]: 5% | Adverse reaction: confusional state [10]: 9% | Adverse reaction: diplopia [10]: 7% | Adverse reaction: disturbance in attention [10]: 6% | Adverse reaction: dizziness [10]: 23% | Adverse reaction: dysarthria [10]: 4% | Adverse reaction: fatigue [10]: 15% | Adverse reaction: gait disturbance [10]: 4% | Adverse reaction: memory impairment [10]: 6% | Adverse reaction: somnolence [10]: 22% | Adverse reaction: tremor [10]: 8% | Adverse reaction: vertigo [10]: 8%

CCOC(=O)Nc1ccc(NCc2ccc(F)cc2)cc1NC(=O)OC(C)OC(=O)C(C)C (stereo not shown) [Compound 3]
Solubility [1]: <1000 µg/mL | Stability in solvent ([2]; 0.1N HCl, benchtop exposed to light): stable over 4 days | Stability in solvent ([2]; 1N HCl over 7 days, benchtop exposed to light): not stable | Stability in solvent ([2]; ethanol and methanol, benchtop exposed to light, degradation on Day 4): soluble and stable through 3 days | Time to full degradation in vitro [3]: ≤ 1 h | Time to full degradation in vitro ([4]; 1000 ng/mL): ≤ 1 h | Exposure of the prodrug itself in systemic circulation [5]: very little exposure | Mechanical hypersensitivity versus baseline ([11]; oral 5 mg/kg): 95% confidence intervals did not cross the baseline mean | Gram force to paw lift (von Frey hairs) ([11]; oral 40 mg/kg): increased the gram force to paw lift significantly | Reduction of the latency of neuropathic ipsilateral paw withdrawal ([11]; oral 40 mg/kg, pin prick, p=0.0003): 9.2 s | AUClast/D [6]: 0.0136 ng·h/mL/mg/kg | Cmax/D [6]: 0.0273 ng/mL/mg/kg | Total exposure of ezogabine on a given molar dose relative to ezogabine ([6]; male, rat, in vivo): > 2 fold | Appearance of the stability solution [8]: clear and colorless through Day 18 | Degradation / conversion to ezogabine in solution (summary) [8]: converts to ezogabine under acidic conditions but does not in organic solvent | Ezogabine Area ([8]; 0.1N HCl, room temp., normal light, 433 h): 400 mAU | Ezogabine Area ([8]; 1N HCl, room temp., normal light, 97 h): 2881 mAU | Appearance of the stability solution ([8]; 9 days): turned a golden yellow by Day 9 | Ezogabine Area ([8]; Acetonitrile, room temp., normal light, 435 h): 51 mAU | Ezogabine Area ([8]; Ethanol, room temp., normal light, 390 h): 43 mAU | Ezogabine Area ([8]; Methanol, room temp., normal light, 435 h): 41 mAU

CCOC(=O)Nc1ccc(NCc2ccc(F)cc2)cc1NC(=O)[C@H](N)CO [Compound 6]
AUClast/D [6]: 199 ng·h/mL/mg/kg | Cmax/D [6]: 233 ng/mL/mg/kg | Exposure of ezogabine (dose normalized AUC) compared with ezogabine itself [6]: similar | Degradation / conversion to ezogabine in solution (summary) [8]: very little degradation to ezogabine | Ezogabine Area ([8]; 1N HCl, room temp., normal light, 437 h): 58 mAU | Ezogabine Area ([8]; 2N HCl 37 C., 437 h): 461 mAU | Ezogabine Area ([8]; 2N HCl, room temp., normal light, 437 h): 177 mAU | Appearance of the stability solution ([8]; 18 days): remained clear and colorless through Day 18 | Ezogabine Area [8, 12]: 184 mAU
